Results as given in US5672707A (priority 1991, dated 1997).
Like-named read-outs stand apart in the source and are kept apart here.

Key:
rat adipocytes [1] = experiment: Lipid composition of adipocytes after incubation with compounds; format: cell-based; conditions: for FFA/TG in adipocytes / PL/CL in adipocytes / PL/TG in adipocytes: cells, Table 11; for FFAc/FFAm / PLc/PLm: distribution between cells and incubation medium, Table 13
Description: (§1) Lipid regulative activity of the declared compounds--derivatives of 9-amino acridine--were evaluated in vitro[…] using rat adipocytes. Adipocytes were separated from adipose tissue of testis appendages of adult male rats. Lipid composition analysis was performed by the method of thin-layer chromatography.
(§2) Quantitative analysis of phospholipids (PL), mono- and diacylglycerides (MDG), triacylglycerides (TG), free fatty acids (FFA), free cholesterol (FCL), and methyl esters of fatty acids (MEFA) was performed by the method of spectrophotometry.

mice [2] = experiment: Psychotropic activity test: arecoline induced hyperkynesis; format: in vivo; conditions: intraperitoneally, dose 1/20 of LD
in vivo = conditions: for LD50: in vivo, ip
Description: (§3) Psychoneurotropic activity of the declared compounds and their influence on learning and memory were observed using unbred male (18-20 g) mice and 180-200 g) rats, held at standard conditions (room temperature 21°-22° C., 12-hours lighting schedule, food and water ad libitum).
Acute toxicity was studied by the method of Kerber with intra peritoneal drug injection.

rat adipocytes [3] = experiment: Lipid content in incubation medium after incubation of adipocytes; format: cell-based; conditions: for FFA/TG in incubation medium / PL/CL in incubation medium / PL/TG in incubation medium: Table 12
Description: as §1, §2

mice [4] = experiment: Step-down test, scopolamine induced amnesia; format: in vivo
Description: as §3

rats [5] = experiment: Passive avoidance test in normal rats, 50% acquisition; format: in vivo; conditions: for change in vivo at 0.1 mg/kg: Rattus norvegicus, 20 min, read-out: Increase of the number of correct trails (% to control). Passive avoidance test (rats)
Description: as §3
(§4) The influence of drugs on reflex conditioning in rats was studied by the passive avoidance test in conditions of 50% acquisition. The effect of the compound was estimated by the increase of the relative number of learned animals with respect to that of control group. […] The other reference drug--noothropic agent piracetam--was given in the dose 250 mg/kg 60 min before training. Amnestic syndrome was stimulated by 20 days application of Sc at the daily dose of 1 mg/kg intraperitoneally. […] The passive avoidance test was performed within 24 hours after the last application of test preparations.

mice [6] = experiment: Psychotropic activity test: motor activity; format: in vivo; conditions: intraperitoneally, dose 1/20 of LD
[7] = target: T1, Acetylcholinesterase, enzyme from human erythrocytes (Homo sapiens, UniProt P22303); experiment: Acetylcholinesterase inhibition, spectrophotometric technique of Ellman; format: biochemical; conditions: enzyme from human erythrocytes, Table 5; for IC50: Acetylcholinesterase inhibition IC50 (M)
T1 construct: on the enzyme from human erythrocytes; from tissue; host or cells: human erythrocytes
T1 sequence (P22303-2 with tags, fused parts or gaps limits assumed): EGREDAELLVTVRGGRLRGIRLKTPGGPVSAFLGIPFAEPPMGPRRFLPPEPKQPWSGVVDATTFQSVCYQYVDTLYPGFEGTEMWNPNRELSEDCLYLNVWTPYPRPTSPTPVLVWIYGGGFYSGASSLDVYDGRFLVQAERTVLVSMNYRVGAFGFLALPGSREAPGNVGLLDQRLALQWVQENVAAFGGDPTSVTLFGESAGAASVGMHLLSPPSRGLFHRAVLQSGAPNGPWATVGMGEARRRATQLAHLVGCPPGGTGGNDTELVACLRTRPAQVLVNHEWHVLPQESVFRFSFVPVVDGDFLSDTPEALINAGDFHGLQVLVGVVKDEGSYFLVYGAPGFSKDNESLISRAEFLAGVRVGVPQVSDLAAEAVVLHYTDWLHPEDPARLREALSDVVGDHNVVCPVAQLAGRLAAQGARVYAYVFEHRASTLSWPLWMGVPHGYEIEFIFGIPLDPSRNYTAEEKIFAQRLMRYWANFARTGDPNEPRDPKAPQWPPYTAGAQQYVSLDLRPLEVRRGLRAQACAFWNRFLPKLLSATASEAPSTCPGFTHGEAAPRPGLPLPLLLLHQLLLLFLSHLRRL
Description: Acetylcholinesterase inhibition under the action of preparations was assessed by the spectrophotometric technique of Ellman on the enzyme from human erythrocytes.

K channels = experiment: Ionic permeabilities of excitable membranes, voltage clamp in the Ranvier node; format: cell-based, frog
rats [8] = experiment: Passive avoidance test on the model of amnestic syndrome (multiple scopolamine injection); format: in vivo
Description: The influence of drugs on reflex conditioning in rats was studied by the passive avoidance test in conditions of 50% acquisition. The effect of the compound was estimated by the increase of the relative number of learned animals with respect to that of control group. […] The passive avoidance test was performed within 24 hours after the last application of test preparations.

[9] = tested on: membranes of brain synaptosomes; experiment: Microviscosity of brain synaptosome membranes, amnestic syndrome model; format: in vivo, rats; conditions: for Microviscosity changes in % to control: rats, scopolamine 20 days, then drug 10 days, brain synaptosomes
old rats = experiment: Passive avoidance test in old rats; format: in vivo; conditions: for Passive avoidance latency in 7 days after training: old rats (18 month), 20 days application, 1 mg/kg (piracetam 250 mg/kg)
Description: as §4
Improvement of animal performance was accompanied by the normalizing of brain synaptosomes microviscosity under the action of all the substances tested. […] The latter observation indicates to the possible interference of amiridine and substance Vo into the processes of atherogenesis in old animals.

brain synaptosomes = experiment: Cholesterol content in brain synaptosomes, old rats; format: in vivo; conditions: for Cholesterol content of brain synaptosomes, old rats: 20 days course; for Cholesterol content in synaptosomes (% from total lipid content): old rats (18 month), 20 days application
[10] = tested on: membranes of brain synaptosomes; experiment: Microviscosity of brain synaptosome membranes, old rats; format: in vivo; conditions: old rats (18 month), 20 days application
Description: Microviscosity of membranes of brain synaptosomes was studied with the use of molecular probe pirren. Brain tissue homogenization and preparation of synaptosomes were performed by the method of De Robertis.

[11] = intraperitoneal injection, Table 5
[12] = rats, 0.1 mg/kg i.p. 20 min before training, piracetam 250 mg/kg 60 min before training
[13] = intraperitoneal injection, Table 5, read-out: LD50 (mg/kg) by Kerber
[14] = ip, rats, 0.1 mg/kg i.p. 20 min before training, piracetam 250 mg/kg 60 min before training
[15] = rats, scopolamine 1 mg/kg 20 days, then drug 10 days (1 mg/kg; piracetam 250 mg/kg)

SMILES: Cc1ccc(CNc2c3c(nc4ccccc24)CC(C)(C)CC3O)c(C)c1 (stereo not drawn) [VIj]
- FFA/TG in adipocytes (rat adipocytes [1]): 1.08
- PL/CL in adipocytes (rat adipocytes [1]): 0.80
- PL/TG in adipocytes (rat adipocytes [1]): 0.85
- FFAc/FFAm (rat adipocytes [1]): 0.95
- PLc/PLm (rat adipocytes [1]): 1.24
- Increase of duration of arecoline induced hyperkynesis (% to control) (mice [2]): 13 % to control
- LD50 (mg/kg) by Kerber (in vivo; [11]): 33.4 ± 3.2 mg/kg
- FFA/TG in incubation medium (rat adipocytes [3]): 1.03
- PL/CL in incubation medium (rat adipocytes [3]): 0.65
- PL/TG in incubation medium (rat adipocytes [3]): 0.62
- Antiamnestic activity in Step-down test (% of mice with latency > cut off) (mice [4]): 0 % of mice
- Performance of normal rats in passive avoidance test (rats [5]; normal rats): statistically significantly improved performance of normal rats
- Increase of the number of correct trails (% to control). Passive avoidance test (rats) (rats [5]; [12]): 40 % to control
- Motor activity increment (% to control) (mice [6]): 55 % to control
- IC50 [7]: 2.5e-06 M
- The shift of activation region of K channels: substance lowest concentrations in M producing measureable shift of 1-2 mV (K channels): no effect

SMILES: CC1(C)CC(=O)c2c(nc3ccccc3c2N)C1 [IVb]
- Increase of duration of arecoline induced hyperkynesis (% to control) (mice [2]): 33 % to control
- LD50 (in vivo; [13]): 70 ± 4.3 mg/kg
- Antiamnestic activity in Step-down test (% of mice with latency > cut off) (mice [4]): 0 % of mice
- change in vivo at 0.1 mg/kg (rats [5]; [14]): 30%
- Motor activity increment (% to control) (mice [6]): 0 % to control
- IC50 [7]: 3.5e-06 M
- The shift of activation region of K channels: substance lowest concentrations in M producing measureable shift of 1-2 mV (K channels): no effect
- Block of K-channels IC (M) (K channels; Ranvier node of the frog, voltage clamp): no effect

SMILES: CC1(C)CC(=O)c2c(nc3ccccc3c2NCc2ccc(Cl)cc2)C1 [Vf]
- Increase of duration of arecoline induced hyperkynesis (% to control) (mice [2]): 0 % to control
- LD50 (in vivo; [13]): > 1000 mg/kg
- Antiamnestic activity in Step-down test (% of mice with latency > cut off) (mice [4]): 0 % of mice
- change in vivo at 0.1 mg/kg (rats [5]; [14]): 0%
- Motor activity increment (% to control) (mice [6]): 13 % to control
- IC50 [7]: 8e-05 M
- The shift of activation region of K channels: substance lowest concentrations in M producing measureable shift of 1-2 mV (K channels): no effect

SMILES: CN1[C@@H]2C[C@@H](OC(=O)[C@H](CO)c3ccccc3)C[C@H]1[C@@H]1O[C@@H]12 [Scopolamine (Sc), scopolamine]
- Passive avoidance latency (rats [8]; [15]): 70.4 ± 10.5 s

SMILES: CCCCNc1c2c(nc3ccccc13)CC(C)(C)CC2=O [Vo]
- Change of lipid composition in adipocytes (rat adipocytes [1]): Accumulation of phospholipids in a cell
- Content of methyl esters of fatty acids in adipocytes (rat adipocytes [1]): sharp decreases
- PL/TG relations and cell cholesterol level (rat adipocytes [1]): increase PL/TG relations and decrease cell cholesterol level
- Potency of effect on lipid composition of adipocytes (rat adipocytes [1]): most potent effect on lipid composition of adipocytes
- Microviscosity of brain synaptosomes, amnestic syndrome ([9]; 10 days application course): normalizing of microviscosity of brain synaptosomes
- Performance in passive avoidance test, amnestic syndrome (rats [8]; 10 days application course): improved performance in passive avoidance test in the 10 days application course to the level achieved under the treatment with reference drugs
- Ejection of triacylglycerides into external medium (rat adipocytes [3]): enhanced ejection of triacylglycerides into external medium

SMILES: Cc1ccc(CNc2c3c(nc4ccccc24)CC(C)(C)CC3O)c(C)c1 (stereo not drawn) [VIi]
- Increase of duration of arecoline induced hyperkynesis (% to control) (mice [2]): 46 % to control
- LD50 (mg/kg) by Kerber (in vivo; [11]): 75.0 ± 1.2 mg/kg
- Antiamnestic activity in Step-down test (% of mice with latency > cut off) (mice [4]): 0 % of mice
- Increase of the number of correct trails (% to control). Passive avoidance test (rats) (rats [5]; [12]): 15 % to control
- Motor activity increment (% to control) (mice [6]): 13 % to control
- IC50 [7]: 1e-06 M
- The shift of activation region of K channels: substance lowest concentrations in M producing measureable shift of 1-2 mV (K channels): no effect

SMILES: Nc1c2c(nc3c1CCC3)CCCC2 [Amiridine, amiridine, reference compound]
- Microviscosity changes in % to control [9]: 105.0 % to control
- Increase of duration of arecoline induced hyperkynesis (% to control) (mice [2]): 100 % to control
- LD50 (in vivo; [13]): 52 ± 3.4 mg/kg
- LD50 (in vivo; read-out: LD): 35 mg/kg
- Passive avoidance latency in 7 days after training (old rats): 116.1 ± 16.9 s
- Passive avoidance latency (rats [8]; [15]): 149.0 ± 11.7 s
- Cholesterol content of brain synaptosomes, old rats (brain synaptosomes): normalized the cholesterol content of brain synaptosomes
- Cholesterol content in synaptosomes (% from total lipid content) (brain synaptosomes): 33.2 ± 0.8 % from total lipid content
- Microviscosity changes (% to control) [10]: 101.7 % to control
- Antiamnestic activity in Step-down test (% of mice with latency > cut off) (mice [4]): 33 % of mice
- change in vivo at 0.1 mg/kg (rats [5]; [14]): 70%
- Motor activity increment (% to control) (mice [6]): 45 % to control

SMILES: Nc1c2c(nc3ccccc13)CCCC2 [Tacrine, tacrine, reference compound]
- Microviscosity changes in % to control [9]: 97.2 % to control
- Increase of duration of arecoline induced hyperkynesis (% to control) (mice [2]): 88 % to control
- LD50 (in vivo; [13]): 35.5 ± 1.8 mg/kg
- LD50 (in vivo; read-out: LD): 52 mg/kg
- Passive avoidance latency in 7 days after training (old rats): 163.4 ± 16.5 s
- Passive avoidance latency (rats [8]; 1 mg/kg): 169.0 ± 14.8 s
- Cholesterol content in synaptosomes (% from total lipid content) (brain synaptosomes): 39.7 ± 1.4 % from total lipid content
- Microviscosity changes (% to control) [10]: 101.4 % to control
- Antiamnestic activity in Step-down test (% of mice with latency > cut off) (mice [4]): 33 % of mice
- change in vivo at 0.1 mg/kg (rats [5]; ip): 25%
- Motor activity increment (% to control) (mice [6]): 0 % to control

SMILES: CCCCNc1c2c(nc3ccccc13)CC(C)(C)CC2=O [Vp]
- Lipid-regulative effect compared with probucol (rat adipocytes [1]): not inferior
- FFA/TG in adipocytes (rat adipocytes [1]): 1.03
- PL/CL in adipocytes (rat adipocytes [1]): 0.83
- PL/TG in adipocytes (rat adipocytes [1]): 0.89
- FFAc/FFAm (rat adipocytes [1]): 0.93
- PLc/PLm (rat adipocytes [1]): 1.41
- Microviscosity changes in % to control [9]: 93.8 % to control
- Increase of duration of arecoline induced hyperkynesis (% to control) (mice [2]): 0 % to control
- LD50 (mg/kg) by Kerber (in vivo; [11]): 200.0 ± 21.9 mg/kg
- Performance of old rats in passive avoidance test (old rats; 20 days course, age 18 months): improved performance of old rats (age 18 months) in passive avoidance test more significantly than in 6 month old adult rats
- Passive avoidance latency in 7 days after training (old rats): 169.4 ± 10.5 s
- Passive avoidance latency (rats [8]; [15]): 170.3 ± 14.9 s
- Cholesterol content of brain synaptosomes, old rats (brain synaptosomes): normalized the cholesterol content of brain synaptosomes
- Cholesterol content in synaptosomes (% from total lipid content) (brain synaptosomes): 30.1 ± 2.4 % from total lipid content
- Microviscosity changes (% to control) [10]: 97.9 % to control
- FFA/TG in incubation medium (rat adipocytes [3]): 0.92
- PL/CL in incubation medium (rat adipocytes [3]): 0.65
- PL/TG in incubation medium (rat adipocytes [3]): 0.52
- Antiamnestic activity in Step-down test (mice [4]): pronounced antiatonestic activity, comparable with that of amiridine and tacrine
- Antiamnestic activity in Step-down test (% of mice with latency > cut off) (mice [4]): 25 % of mice
- change in vivo at 0.1 mg/kg (rats [5]; ip): 25%
- Motor activity increment (% to control) (mice [6]): 69 % to control
- Capability to induce the shift of potassium permeability voltage dependency (K channels): most pronounced capability to induce the shift of potassium permeability voltage dependency

SMILES: NC(=O)CN1CCCC1=O [Piracetam, piracetam, reference compound]
- Increase of duration of arecoline induced hyperkynesis (% to control) (mice [2]): 0 % to control
- LD50 (in vivo; [13]): 1000 mg/kg
- Passive avoidance latency in 7 days after training (old rats): 120.0 ± 24.3 s
- Passive avoidance latency (rats [8]; [15]): 162.3 ± 13.3 s
- change in vivo at 0.1 mg/kg (rats [5]): 63%
- Motor activity increment (% to control) (mice [6]): 0 % to control
- Acetylcholinesterase inhibition IC50 (M) [7]: no effect
